The results in this text go back to ChEMBL document CHEMBL1799924, “Synthesis and activities of naphthalimide azoles as a new type of antibacterial and antifungal agents” (2011).

The structures appear in SMILES notation. Values after ≈ are worked out from the molar mass of the structure shown.

The subject of one experiment is Pseudomonas aeruginosa. Description: Antibacterial activity against Pseudomonas aeruginosa by microbroth dilution method. The experiment is classed as functional.
Another experiment deals with Candida albicans. As to the kind of experiment: Antifungal activity against Candida albicans ATCC 76615 by microbroth dilution method. The experiment is classed as functional.
Another experiment deals with Escherichia coli. As to the kind of experiment: Antibacterial activity against Escherichia coli JM 109 by microbroth dilution method. The experiment is classed as functional.
The subject of experiment [1] is Staphylococcus aureus. As to the kind of experiment: Antibacterial activity against Staphylococcus aureus ATCC 25923 by microbroth dilution method. The experiment is classed as functional.
The next experiment deals with Candida. Description: Antifungal activity against Candida mycoderma by microbroth dilution method. The experiment is classed as functional.
In a further experiment the test system is Bacillus. As to the kind of experiment: Antibacterial activity against Bacillus proteus by microbroth dilution method. The experiment is classed as functional.
The subject of another experiment is Salmonella typhi. Description: Antibacterial activity against Bacillus typhi by microbroth dilution method. The experiment is classed as functional, Salmonella enterica subsp. enterica serovar Typhi. The note with it: Salmonella enterica.
Experiment [2] has as its system Staphylococcus aureus. Description: Antibacterial activity against methicillin-resistant Staphylococcus aureus N 315 by microbroth dilution method. The experiment is classed as functional.
Another experiment has as its system Bacillus subtilis. As to the kind of experiment: Antibacterial activity against Bacillus subtilis ATCC 6633 by microbroth dilution method. The experiment is classed as functional.
A further experiment relates to Micrococcus luteus. As to the kind of experiment: Antibacterial activity against Micrococcus luteus by microbroth dilution method. The experiment is classed as functional.

As for `O=C1c2cccc3c(Br)ccc(c23)C(=O)N1CCCCCn1cncn1`, the MIC in the experiment with Pseudomonas aeruginosa was 256 µg/mL (≈ 619 µM); against Candida albicans, over 512 µg/mL; against Escherichia coli, over 512 µg/mL; against Staphylococcus aureus [1], over 512 µg/mL; in the experiment with Candida, over 512 µg/mL; with Bacillus, over 512 µg/mL. Besides, the MIC with Salmonella typhi, against Staphylococcus aureus [2], in the experiment with Bacillus subtilis and in the experiment with Micrococcus luteus was over 512 µg/mL in each case.
As to `O=C1c2cccc3c(Br)ccc(c23)C(=O)N1CCCn1cc[n+](Cc2ccc(F)cc2F)c1.[Br-]`, the MIC in the experiment on Pseudomonas aeruginosa came out at 8 µg/mL; in the experiment on Candida albicans, 32 µg/mL; in the experiment with Escherichia coli, 8 µg/mL; against Staphylococcus aureus [1] it was 4 µg/mL; with Candida it was 32 µg/mL; with Bacillus, 8 µg/mL. The MIC in the experiment on Salmonella typhi worked out at 8 µg/mL; with Staphylococcus aureus [2] it was 4 µg/mL; in the experiment on Bacillus subtilis it was 8 µg/mL; against Micrococcus luteus, 8 µg/mL.
Regarding `O=C1c2cccc3c(Br)ccc(c23)C(=O)N1CCCn1c[n+](Cc2ccc(Cl)c(Cl)c2)cn1.[Br-]`, the MIC against Pseudomonas aeruginosa stood at 16 µg/mL; in the experiment with Candida albicans, 16 µg/mL; against Escherichia coli, 16 µg/mL; in the experiment on Staphylococcus aureus [1] it was 16 µg/mL; in the experiment on Candida it was 16 µg/mL; against Bacillus, 32 µg/mL. In addition, the MIC in the experiment with Salmonella typhi was 16 µg/mL; against Staphylococcus aureus [2], 16 µg/mL; against Bacillus subtilis, 32 µg/mL; in the experiment with Micrococcus luteus it was 16 µg/mL.
Turning to `O=C1c2cccc3c(Br)ccc(c23)C(=O)N1CCCn1c[n+](Cc2ccc([N+](=O)[O-])cc2)cn1.[Br-]`, the MIC with Pseudomonas aeruginosa turned out to be 32 µg/mL; in the experiment on Candida albicans it was 32 µg/mL; against Escherichia coli, 16 µg/mL; in the experiment on Staphylococcus aureus [1] it was 32 µg/mL; with Candida it was 16 µg/mL; in the experiment with Bacillus, 16 µg/mL. The MIC against Salmonella typhi stood at 32 µg/mL; against Staphylococcus aureus [2], 16 µg/mL; against Bacillus subtilis, 32 µg/mL; in the experiment on Micrococcus luteus, 32 µg/mL.
With `C[C@@H]1CN(c2c(F)c(F)c3c(=O)c(C(=O)O)cn(C4CC4)c3c2F)C[C@H](C)N1` [ORBIFLOXACIN], the minimal inhibitory concentration (MIC) in the experiment with Pseudomonas aeruginosa turned out to be 1 µg/mL (≈ 2.53 µM); in the experiment on Escherichia coli it was 1 µg/mL (≈ 2.53 µM); in the experiment on Staphylococcus aureus [1], 2 µg/mL (≈ 5.06 µM); against Bacillus, 4 µg/mL (≈ 10.1 µM); with Salmonella typhi it was 1 µg/mL (≈ 2.53 µM); against Staphylococcus aureus [2], 1 µg/mL (≈ 2.53 µM). In addition, the values for the minimal inhibitory concentration (MIC) against Bacillus subtilis and with Micrococcus luteus were 2 µg/mL (≈ 5.06 µM) and 1 µg/mL (≈ 2.53 µM), respectively.
On to `O=C1c2cccc3c(Br)ccc(c23)C(=O)N1CCCCn1c[n+](Cc2ccc(F)cc2F)cn1.[Br-]`, for which the MIC with Pseudomonas aeruginosa worked out at 2 µg/mL; with Candida albicans it was 16 µg/mL; against Escherichia coli, 8 µg/mL; in the experiment with Staphylococcus aureus [1] it was 16 µg/mL; with Candida it was 32 µg/mL; against Bacillus, 16 µg/mL. In addition, the MIC against Salmonella typhi is 8 µg/mL; in the experiment on Staphylococcus aureus [2], 16 µg/mL; against Bacillus subtilis, 16 µg/mL; with Micrococcus luteus it was 16 µg/mL.
Take `O=C1c2cccc3c(Br)ccc(c23)C(=O)N1CCCCCCn1ccnc1`: the MIC with Pseudomonas aeruginosa worked out at 128 µg/mL (≈ 300 µM); in the experiment on Candida albicans, 32 µg/mL (≈ 75.1 µM); in the experiment with Escherichia coli, 64 µg/mL (≈ 150 µM); in the experiment on Staphylococcus aureus [1] it was 64 µg/mL (≈ 150 µM); against Candida, 32 µg/mL (≈ 75.1 µM); in the experiment on Bacillus, 16 µg/mL (≈ 37.5 µM). Also, the MIC against Salmonella typhi amounted to 32 µg/mL (≈ 75.1 µM); in the experiment on Staphylococcus aureus [2] it was 64 µg/mL (≈ 150 µM); with Bacillus subtilis it was 16 µg/mL (≈ 37.5 µM); against Micrococcus luteus, 128 µg/mL (≈ 300 µM).
As to `O=C(N[C@H](CO)[C@H](O)c1ccc([N+](=O)[O-])cc1)C(Cl)Cl` [CHLORAMPHENICOL], the MIC against Pseudomonas aeruginosa turned out to be 16 µg/mL (≈ 49.5 µM); against Escherichia coli it was 8 µg/mL (≈ 24.8 µM); in the experiment with Staphylococcus aureus [1], 2 µg/mL (≈ 6.19 µM); with Bacillus it was 2 µg/mL (≈ 6.19 µM); against Salmonella typhi it was 8 µg/mL (≈ 24.8 µM); against Staphylococcus aureus [2], 4 µg/mL (≈ 12.4 µM). Moreover, the MIC against Bacillus subtilis is 4 µg/mL (≈ 12.4 µM); against Micrococcus luteus, 8 µg/mL (≈ 24.8 µM).
As for `OC(Cn1cncn1)(Cn1cncn1)c1ccc(F)cc1F` [FLUCONAZOLE], the values for the MIC against Candida albicans and with Candida were 1 µg/mL (≈ 3.27 µM) and 4 µg/mL (≈ 13.1 µM), respectively.
